Patent publication US10961233B2 (LIFEARC, priority 2016, dated 2021)

What was measured:
[1] = system: LM2 and MDA-MB-231 breast cancer cell lines; assay: PAICS 2D cell proliferation assay (CellTiter-Glo viability, 72 h); format: cell-based; conditions: Homo sapiens; 72 h incubation; cell line not given
Experimental: PAICS 2D Cell Proliferation Assay
Frozen cryovial stocks of LM2 and MDA-MB-231 breast cancer cell lines were thawed and cultured in 4.5 g/L glucose DMEM (31966-047, Invitrogen) supplemented with 10% Fetal Bovine Serum (10500-064, Invitrogen) until confluent in a T175 flask. Cells were incubated at 37° C. with 5% CO2 in a humidified incubator.
Cells were collected from T175 flasks by washing with PBS (10010-056, Invitrogen) and dissociated using Accutase (A6964, Sigma Aldrich). This was followed by centrifuging (1200 rpm, 5 min) and resuspending the cells in 10 ml of media containing 1% penicillin/streptomycin (15140-122, Invitrogen). Cells were counted by trypan blue exclusion method using an automated cell counter (Cellometer) and diluted to a concentration of 40,000/ml. 1000 cells were then seeded into 384-well white-walled plates (Corning, 3707) in a volume of 25 μl. Plates were Incubated overnight at 37° C. with 5% CO2.
After 24 hours, PAICS compounds were added onto the assay plates using an HP D300 Digital Dispenser (Hewlett Packard). 10 mM stocks were used and dispensed as a 10 point concentration response curve (CRC) ½ log dilution series with a final top concentration of 100 μM. Controls were added onto each plate: positive controls included Staurosporine CRC (100 μM stock dispensed as a 10 point CRC ½ log dilution series with a final top concentration of 1 μM) and PAICS compound MRT00211919 (10 mM stock dispensed as a 10 point CRC ½ log dilution series with a final top concentration of 100 μM); a high control of Staurosporine (0.1 μM (LM2), 0.316 μM (MDA-MB-231) FAC) and a low control of media containing 1% DMSO. A final concentration of 1% DMSO was then added across the plates for normalisation. Following compound addition, assay plates were incubated for 72 hours at 37° C. with 5% CO2.
Day 5—Cytotoxicity and Cell Viability Assays
After 72 h incubation, dead and viable cells were measured in each assay plate. Cytotoxicity was assessed through fluorescent DNA staining using the CellTox™ Green Cytotoxicity Assay kit (G8743, Promega) following the manufacturer's multiplexing protocol. Impaired cell membrane integrity results in the access of dye to stain DNA allowing quantification of dead cells. Cell viability was determined following ATP quantification using the CellTiter-Glo® Luminescent Cell Viability Assay kit (G7572, Promega) following the manufacturer's protocol. ATP released from lysed cells allowed for the generation of a signal proportional to the number of cells present in the well. All endpoint reads were performed using the PheraSTAR Plus (BMG Labtech). Data is expressed as % viable cells and % dead cells against controls (mean±SEM of duplicate curves).

WT full length PAICS = WT full length PAICS (Homo sapiens (Human), UniProt P22234); assay: Biochemical assay to measure PAICS activity (Transcreener ADP2 FI); conditions: SAICAR synthetase reaction, ADP detection, 30 min pre-incubation
WT full length PAICS, sequence (P22234 whole entry): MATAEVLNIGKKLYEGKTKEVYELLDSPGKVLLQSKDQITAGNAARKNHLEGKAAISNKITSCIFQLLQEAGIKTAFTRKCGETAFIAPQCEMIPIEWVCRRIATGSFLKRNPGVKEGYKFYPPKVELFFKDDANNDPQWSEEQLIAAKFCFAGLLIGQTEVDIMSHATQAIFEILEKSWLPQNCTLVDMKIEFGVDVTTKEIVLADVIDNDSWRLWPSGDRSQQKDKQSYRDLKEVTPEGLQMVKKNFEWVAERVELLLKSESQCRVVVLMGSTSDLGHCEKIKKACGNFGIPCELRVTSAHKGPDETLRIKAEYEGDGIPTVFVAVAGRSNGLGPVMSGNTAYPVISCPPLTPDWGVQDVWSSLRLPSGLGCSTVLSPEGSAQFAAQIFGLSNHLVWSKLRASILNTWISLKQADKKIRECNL
Excerpt: Biochemical Assay to Measure PAICS Activity
The biochemical assay was used to measure PAICS SAICAR synthetase-mediated conversion of CAIR, aspartic acid and ATP to SAICAR, ADP and inorganic phosphate (Pi), post-AIR/CAIR equilibration (see FIG. 3). This was achieved by detecting the ADP generated during the reaction, using Bellbrook Lab's Transcreener ADP^2 FI assay. An increase in the fluorescence intensity is directly proportional to the amount of PAICS activity.
The Transcreener ADP^2 FI assay is a homogeneous competitive displacement fluorescence intensity assay which uses direct immunodetection of ADP. Displacement of the tracer by ADP causes an increase in the fluorescence at excitation 590 nm and emission 617 nm (FIG. 3).
5 μl WT full length PAICS (final assay concentration, fac, 2.5 nM) in basic buffer, added to black, non-binding, 384-well plates (Corning #3575), columns 1 to 22. 5 μl basic buffer was added to columns 23+24 (negative control). PAICS stock at 31.9 μM from the PI's lab (Steve Firestine). Basic buffer contained 50 mM Tris-HCl pH8 and 0.5 mM EDTA, fac.
1 μl compound in 100% DMSO added per well, or 1 μl 100% DMSO to positive controls (columns 1+2) and negative controls (columns 23+24). Final assay top concentration of compound either 1 mM or 30-μM, serially diluted with half-log dilutions across the plate in duplicate (one 10-point concentration response curve across wells 3 to 12, another across 13 to 22). Compounds pre-incubated with PAICS enzyme for 30 mins at RT. 2 μl CAIR added (fac 10 μM) in basic buffer plus 25 mM MgCl2 and 50 mM KHCO3 fac to all wells. CAIR stock 50 mM from Steve Firestine's lab. 1 hr RT incubation for AIR-CAIR equilibration. NB: ˜50% CAIR is decarboxylated during equilibration therefore 5 μM remains for the synthetase reaction.
2 μl ATP/aspartic acid added (fac 30 μM/180 μM) in reaction buffer to all wells. 30 mins RT incubation for appropriate level of ATP turnover. Reaction buffer contained basic buffer plus 10 mM DTT, 0.01% BSA and 0.01% Brij 35, fac.
10 μl ADP detection reagent added to all wells (as per instructions, Transcreener ADP^2 FI kit, BellBrook Labs #3013-10K). Incubation for 1 h at RT to allow antibody equilibration. Fluorescence intensity determined using a Tecan Safire2 (excitation at 590 nm, emission at 617 nm).

Row | Compound | EC50 [1] [µM] | IC50 (WT full length PAICS) [µM]
1 | CN1CC(OC(=O)N2CCN(c3ccc(Br)c(NC(=O)c4coc(N)n4)c3)CC2)C1 [Example 28, 1-Methylazetidin-3-yl 4-(3-{[(2-amino-1,3-oxazol-4-yl)carbonyl]amino}-4-bromophenyl)piperazine-1-carboxylate] | 0.25 to 0.5 | 0.01 to 0.025
2 | CNCCOC(=O)N1CCN(c2ccc(Br)c(NC(=O)c3coc(N)n3)c2)CC1 [Example 25, 2-(Methylamino)ethyl 4-(3-(2-aminooxazole-4-carboxamido)-4-bromophenyl)piperazine-1-carboxylate] | 0.1 to 0.25 | 0.01 to 0.025
3 | CN1CCC(OC(=O)N2CCN(c3ccc(Cl)c(NC(=O)c4coc(N)n4)c3)CC2)C1 (stereo not shown) [Example 30, 1-Methylpyrrolidin-3-yl 4-(3-{[(2-amino-1,3-oxazol-4-yl)carbonyl]amino}-4-chlorophenyl)piperazine-1-carboxylate] | 0.5 to 1 | > 0.1
4 | CN1CCC(NCCS(=O)(=O)N2CCN(c3ccc(Cl)c(NC(=O)c4coc(N)n4)c3)CC2)CC1 [Example 62, 2-Amino-N-{2-chloro-5-[4-({2-[(1-methylpiperidin-4-yl)amino]ethyl}sulfonyl)piperazin-1-yl]phenyl}-1,3-oxazole-4-carboxamide] | 0.25 to 0.5 | 0.01 to 0.025
5 | CN(C)CCOC(=O)N1CCN(c2ccc(Cl)c(NC(=O)c3coc(N)n3)c2)CC1 [Example 33, 2-(Dimethylamino)ethyl 4-(3-{[(2-amino-1,3-oxazol-4-yl)carbonyl]amino}-4-chlorophenyl)piperazine-1-carboxylate] | 0.5 to 1 | 0.025 to 0.1
6 | CN(C)CCCOC(=O)N1CCN(c2ccc(Cl)c(NC(=O)c3coc(N)n3)c2)CC1 [Example 29, 3-(Dimethylamino)propyl 4-(3-{[(2-amino-1,3-oxazol-4-yl)carbonyl]amino}-4-chlorophenyl)piperazine-1-carboxylate] | 0.5 to 1 | 0.025 to 0.1
7 | CSc1ccc(N2CCN(C(=O)OCCCN(C)C)CC2)cc1NC(=O)c1coc(N)n1 [Example 26, 3-(Dimethylamino)propyl-4-[3-{[(2-amino-1,3-oxazol-4-yl)carbonyl]amino}-4-(methylsulfanyl)phenyl]piperazine-1-carboxylate] | 0.5 to 1 | 
8 | CN1CCC(S(=O)(=O)N2CCN(c3ccc(Br)c(NC(=O)c4coc(N)n4)c3)CC2)C1 (stereo not shown) [Example 89, 2-Amino-N-(2-bromo-5-{4-[(1-methylpyrrolidin-3-yl)sulfonyl]piperazin-1 yl}phenyl)-1,3-oxazole-4-carboxamide] | 0.1 to 0.25 | 
9 | Nc1nc(C(=O)Nc2cc(N3CCN(S(=O)(=O)C4CCNC4)CC3)ccc2Br)co1 (stereo not shown) [Example 88, 2-Amino-N-{2-bromo-5-[4-(pyrrolidin-3-ylsulfonyl)piperazin-1-yl]phenyl}-1,3-oxazole-4-carboxamide] | 0.1 to 0.25 | 
10 | CSc1ccc(N2CCN(C(=O)OCCN(C)C)CC2)cc1NC(=O)c1coc(N)n1 [Example 27, 2-(Dimethylamino)ethyl 4-[3-{[(2-amino-1,3-oxazol-4-yl)carbonyl]amino}-4-(methylsulfanyl)phenyl]piperazine-1-carboxylate] | 0.5 to 1 | 

Results, then the compound that gave them:

Row | EC50 [1] [µM] | IC50 (WT full length PAICS) [µM] | Compound
11 | < 0.1 |  | CC(CNC(C)C)CS(=O)(=O)N1CCN(c2ccc(Br)c(NC(=O)c3coc(N)n3)c2)CC1 (stereo not shown) [Example 80, 2-Amino-N-[2-bromo-5-(4-{[2-methyl-3-(propan-2-ylamino)propyl]sulfonyl}piperazin-1-yl)phenyl]-1,3-oxazole-4-carboxamide]
12 | 0.5 to 1 | 0.025 to 0.1 | NCCS(=O)(=O)N1CCN(c2ccc(Cl)c(NC(=O)c3coc(N)n3)c2)CC1 [Example 53, 2-Amino-N-(5-(4-(2-aminoethylsulfonyl)piperazin-1-yl)-2-chlorophenyl) oxazole-4-carboxamide]
13 | 0.25 to 0.5 | 0.01 to 0.025 | CN(C)CCCS(=O)(=O)N1CCN(c2ccc(Cl)c(NC(=O)c3coc(N)n3)c2)CC1 [Example 68, 2-Amino-N-[2-chloro-5-(4-{[3-(dimethylamino)propyl]sulfonyl}piperazin-1-yl)phenyl]-1,3-oxazole-4-carboxamide]
14 | 0.1 to 0.25 | < 0.01 | CN(C)CCS(=O)(=O)N1CCN(c2ccc(Br)c(NC(=O)c3coc(N)n3)c2)CC1 [Example 54, 2-Amino-N-[2-bromo-5-(4-{[2-(dimethylamino)ethyl]sulfonyl}piperazin-1-yl)phenyl]-1,3-oxazole-4-carboxamide]
15 | 0.5 to 1 | 0.01 to 0.025 | CN(C)CCS(=O)(=O)N1CCN(c2ccc(Cl)c(NC(=O)c3coc(N)n3)c2)CC1 [Example 57, 2-Amino-N-[2-chloro-5-(4-{[2-(dimethylamino)ethyl]sulfonyl}piperazin-1-yl)phenyl]-1,3-oxazole-4-carboxamide]
16 | 0.25 to 0.5 | 0.01 to 0.025 | CN(C)CCNCCS(=O)(=O)N1CCN(c2ccc(Cl)c(NC(=O)c3coc(N)n3)c2)CC1 [Example 60]
17 | 0.25 to 0.5 | 0.01 to 0.025 | CN(C)CCN1CCN(c2ccc(Br)c(NC(=O)c3coc(N)n3)c2)CC1=O [Example 45]
18 | 0.1 to 0.25 |  | CC(CN(C)C)CS(=O)(=O)N1CCN(c2ccc(Br)c(NC(=O)c3coc(N)n3)c2)CC1 (stereo not shown) [Example 82, 2-Amino-N-[2-bromo-5-(4-{[3-(dimethylamino)-2-methylpropyl]sulfonyl}piperazin-1-yl)phenyl]-1,3-oxazole-4-carboxamide]
19 | < 0.1 |  | CCNCC(C)CS(=O)(=O)N1CCN(c2ccc(Br)c(NC(=O)c3coc(N)n3)c2)CC1 (stereo not shown) [Example 79, 2-Amino-N-[2-bromo-5-(4-{[3-(ethylamino)-2-methylpropyl]sulfonyl}piperazin-1-yl)phenyl]-1,3-oxazole-4-carboxamide]
20 | < 0.1 |  | CC(CN1CCCC1)CS(=O)(=O)N1CCN(c2ccc(Br)c(NC(=O)c3coc(N)n3)c2)CC1 (stereo not shown) [Example 71, 2-Amino-N-[2-bromo-5-(4-{[2-methyl-3-(pyrrolidin-1-yl)propyl]sulfonyl}piperazin-1-yl)phenyl]-1,3-oxazole-4-carboxamide]
21 | < 0.1 |  | CNCC(C)CS(=O)(=O)N1CCN(c2ccc(Br)c(NC(=O)c3coc(N)n3)c2)CC1 (stereo not shown) [Example 78, 2-Amino-N-[2-bromo-5-(4-{[2-methyl-3-(methylamino)propyl]sulfonyl}piperazin-1-yl)phenyl]-1,3-oxazole-4-carboxamide]
22 | 0.1 to 0.25 |  | CCN(CC)CC(C)CS(=O)(=O)N1CCN(c2ccc(Br)c(NC(=O)c3coc(N)n3)c2)CC1 (stereo not shown) [Example 81, 2-Amino-N-[2-bromo-5-(4-{[3-(diethylamino)-2-methylpropyl]sulfonyl}piperazin-1-yl)phenyl]-1,3-oxazole-4-carboxamide]
